Measured values reported in patent US20080194585A1, “Fungicidal Pyrazine Derivatives” (priority 2005, published 2008).
Marks after values point to notes of the source that are not given here.

Legend:
Details in all cases: 100 = 100% disease control, 0 = no control
Phytophthora infestans = experiment: whole plant or invertebrate; format: in vivo
Plasmopara viticola = experiment: Test D: grape downy mildew, spray after inoculation of grape seedlings; format: in vivo
From the text: Upon removal, disease ratings were made. […] A dash (-) indicates no test results.

fusarium graminearium = experiment: Test I: wheat head scab, preventive spray on wheat seedlings
Procedure: (the causal agent of wheat head scab) and incubated in a saturated atmosphere at 20° C. for 72 h, and then moved to a growth chamber at 22° C. for 5 days, after which disease ratings were made.

[1] = tested on: Erysiphe graminis f. sp. tritici; experiment: Test L: wheat powdery mildew, preventive spray on wheat seedlings
Botrytis cinerea = experiment: Test E: tomato botrytis, preventive spray on tomato seedlings
[2] = tested on: Puccinia recondita f. sp. tritici; experiment: Test K: wheat leaf rust, preventive spray on wheat seedlings
[3] = tested on: Colletotrichum orbiculare; experiment: Test B: cucumber Colletotrichum anthracnose, preventive spray on cucumber seedlings
Septoria nodorum = experiment: Test H: wheat glum blotch, preventive spray on wheat seedlings
Procedure: (the causal agent of wheat glum blotch) and incubated in a saturated atmosphere at 20° C. for 48 h, and then moved to a growth chamber at 22° C. for 5 days, after which disease ratings were made.

Septoria tritici = experiment: Test J: wheat leaf blotch, preventive spray on wheat seedlings; format: in vivo
From the text: A dash (-) indicates no test results.

Pythium aphanidermatum = experiment: Test A: bluegrass pythium blight, preventive spray on bluegrass seedlings
Rhizoctonia oryzae = experiment: Test G: turf brown patch, preventive spray on creeping bent grass seedlings
Procedure: (the causal agent of turf brown patch) and incubated in a saturated atmosphere at 27° C. for 24 h, and then moved to a growth chamber at 27° C. for 5 days, after which disease ratings were made.

SMILES | Test F disease control rating (Phytophthora infestans; 40 ppm (marked *)) | Test D disease control rating (Plasmopara viticola; 40 ppm (marked *)) | Test I disease control rating (fusarium graminearium; 40 ppm (marked *)) | Test L disease control rating ([1]; 40 ppm (marked *)) | Test E disease control rating (Botrytis cinerea; 40 ppm (marked *)) | Test K disease control rating ([2]; 40 ppm (marked *)) | Test B disease control rating ([3]; 40 ppm (marked *)) | Test H disease control rating (Septoria nodorum; 40 ppm (marked *)) | Test J disease control rating (Septoria tritici; 40 ppm (marked *)) | Test A disease control rating (Pythium aphanidermatum; 40 ppm (marked *)) | Test G disease control rating (Rhizoctonia oryzae; 40 ppm (marked *)) | Test F disease control rating (Phytophthora infestans; 200 ppm) | Test D disease control rating (Plasmopara viticola; 200 ppm) | Test I disease control rating (fusarium graminearium; 200 ppm) | Test L disease control rating ([1]; 200 ppm) | Test E disease control rating (Botrytis cinerea; 200 ppm) | Test K disease control rating ([2]; 200 ppm) | Test B disease control rating ([3]; 200 ppm) | Test H disease control rating (Septoria nodorum; 200 ppm) | Test J disease control rating (Septoria tritici; 200 ppm) | other results
COC(=O)Cn1c(-c2c(F)cccc2F)c(Cl)nc(-n2ccc(C)n2)c1=O [compound 308] | 0* % | 0* % | 0* % | 0* % | 0* % | 9* % | 0* % | 0* % | 29* % | 0* % | 0* % |  |  |  |  |  |  |  |  |  | 
CSCC(C)n1c(-c2c(F)cccc2F)c(Cl)nc(-n2ccc(C)n2)c1=O (stereo not shown) [compound 309] | 0* % | 0* % | 0* % | 0* % | 99* % | 0* % | 0* % | 0* % | 5* % | 0* % | 0* % |  |  |  |  |  |  |  |  |  | 
COCCn1c(-c2c(F)cccc2F)c(Cl)nc(-n2ccc(C)n2)c1=O [compound 310] | 0* % | 0* % | 0* % | 0* % | 0* % | 74* % | 0* % | 64* % | 42* % | 0* % | 0* % |  |  |  |  |  |  |  |  |  | 
CSCCn1c(-c2c(F)cccc2F)c(Cl)nc(-n2ccc(C)n2)c1=O [compound 311] | 0* % | 0* % | 0* % | 0* % | 94* % | 74* % | 0* % | 0* % | 74* % | 0* % | 0* % |  |  |  |  |  |  |  |  |  | 
COCC(C)n1c(-c2c(F)cccc2F)c(Cl)nc(-n2cccc2C#N)c1=O (stereo not shown) [compound 312] |  |  |  |  |  |  |  |  |  |  |  | 9% | 40% | 0% | 0% | 0% | 0% | 0% | 0% | 13% | Test A disease control rating (Pythium aphanidermatum; 200 ppm): 0%; Test G disease control rating (Rhizoctonia oryzae; 200 ppm): 0%
CC(C)Cn1c(-c2c(F)cccc2F)c(Cl)nc(N2CCCC2)c1=O [compound 314] |  |  |  |  |  |  |  |  |  |  |  | 0% | 0% | 18% | 0% | 0% | 0% | 0% | 0% | 0% | Test A disease control rating (Pythium aphanidermatum; 200 ppm): 88%; Test G disease control rating (Rhizoctonia oryzae; 200 ppm): 0%
CC(C)Cn1c(C2CC2)c(Cl)nc(-n2cccn2)c1=O [compound 315] |  |  |  |  |  |  |  |  |  |  |  | 0% | 0% | 0% | 0% | 0% | 0% | 0% | 0% | 7% | Test A disease control rating (Pythium aphanidermatum; 200 ppm): 69%; Test G disease control rating (Rhizoctonia oryzae; 200 ppm): 0%
CCc1c(Cl)nc(-n2cccn2)c(=O)n1CC(C)C [compound 316] |  |  |  |  |  |  |  |  |  |  |  | 0% | 0% | 0% | 0% | 0% | 0% | 0% | 0% | 0% | Test A disease control rating (Pythium aphanidermatum; 200 ppm): 54%; Test G disease control rating (Rhizoctonia oryzae; 200 ppm): 0%
CCCCCc1c(Cl)nc(-n2cccn2)c(=O)n1CC(C)C [compound 317] |  |  |  |  |  |  |  |  |  |  |  | 0% | 0% | 0% | 0% | 0% | 41% | 0% | 0% | 28% | Test A disease control rating (Pythium aphanidermatum; 200 ppm): 0%; Test G disease control rating (Rhizoctonia oryzae; 200 ppm): 0%
CC(C)Cn1c(-c2c(Cl)cc(Cl)cc2Cl)c(Cl)nc(-n2cccn2)c1=O [compound 318] | 0* % | 0* % | 0* % | 67* % | 99* % | 97* % | 82* % | 97* % | 100* % | 0* % | 78* % |  |  |  |  |  |  |  |  |  | 
O=c1c(-n2cccn2)nc(Cl)c(-c2c(F)cc(F)cc2F)n1-c1ccccc1F [compound 320] | 0* % | 0* % | 0* % | 96* % | 99* % | 99* % | 88* % | 100* % | 100* % | 74* % | 80* % |  |  |  |  |  |  |  |  |  | 
Cc1ccn(-c2nc(Cl)c(-c3c(F)cc(F)cc3F)n(-c3ccccc3)c2=O)n1 [compound 321] | 0* % | 17* % | 82* % | 0* % | 99* % | 99* % | 94* % | 100* % | 100* % | 0* % | 70* % |  |  |  |  |  |  |  |  |  | 
O=c1c(-n2cccn2)nc(Cl)c(-c2ccc(F)cc2Cl)n1-c1ccccc1 [compound 322] | 0* % | 0* % | 0* % | 0* % | 99* % | 92* % | 63* % | 98* % | 100* % | 0* % | 16* % |  |  |  |  |  |  |  |  |  | 
Cc1ccn(-c2nc(Cl)c(-c3ccc(F)cc3Cl)n(-c3ccccc3)c2=O)n1 [compound 323] | 0* % | 0* % | 0* % | 0* % | 99* % | 96* % | 78* % | 97* % | 100* % | 0* % | 16* % |  |  |  |  |  |  |  |  |  | 
